Structures can show the parent of a compound that is named as a salt.
Assays:
[1] = biological target: T1, human muscarinic M1 receptors (Homo sapiens, UniProt P11229); assay: IP production in A9L cells with human M1 receptors (IPOne TR-FRET), Example 28; format: cell-based; details: for huM1/A9L Smax: percentage of maximal stimulation by carbachol; for huM1/A9L ED50 relative to CCh*: potency relative to carbachol at its EC50, semi-quantitative
T1 construct: host or cells: A9L cells
T1 sequence (P11229 1-460): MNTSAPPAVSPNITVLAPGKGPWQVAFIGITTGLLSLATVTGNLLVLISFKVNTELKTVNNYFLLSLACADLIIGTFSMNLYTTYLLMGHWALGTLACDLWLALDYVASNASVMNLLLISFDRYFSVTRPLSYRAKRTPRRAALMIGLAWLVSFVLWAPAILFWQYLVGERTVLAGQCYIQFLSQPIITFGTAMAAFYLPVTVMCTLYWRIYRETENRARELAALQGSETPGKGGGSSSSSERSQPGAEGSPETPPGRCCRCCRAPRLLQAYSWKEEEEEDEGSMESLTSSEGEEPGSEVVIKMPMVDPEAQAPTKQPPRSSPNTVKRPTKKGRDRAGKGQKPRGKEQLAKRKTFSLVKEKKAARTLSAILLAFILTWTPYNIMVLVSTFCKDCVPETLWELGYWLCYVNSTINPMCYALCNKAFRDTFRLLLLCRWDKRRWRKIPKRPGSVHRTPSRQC
Experimental: (§1) Muscarinic M1 and M3 agonist activity was evaluated by measuring the stimulation of inositol phosphate (IP) production in the presence of lithium chloride from A9L cells transfected with expression plasmids containing human muscarinic M1 and M3 receptors, respectively. The cell lines were a gift from Professor W Messer, and the methods were as described in Tejada F R et al. J. Med. Chem. 2006; 49: 7518-31 except that the assay was scaled down to run in 384 well plates, and IP was measured in the cell lysates using the non-isotopic IPOne TR-FRET assay (CIS-BIO, Inc).
(§2) Cells were grown to 90% confluence in 384 well hi-base plates (Greiner Bio-One), compounds were added at suitable concentrations in growth medium containing 10 mM LiCl, buffered with an extra 10 mM HEPES (pH7.4), and incubated for 60 minutes at 37° C. Cells were lysed and assayed for IP following the manufacturer's instructions.
(§3) The value for a full agonist is 100%, while partial agonists give values below 100%.

[2] = biological target: T2, human muscarinic M3 receptors (Homo sapiens, UniProt P20309); assay: IP production in A9L cells with human M3 receptors (IPOne TR-FRET), Example 28; format: cell-based; details: for huM3/A9L Smax: percentage of maximal stimulation by carbachol; for huM3/A9L ED50 relative to CCh*: potency relative to carbachol at its EC50, semi-quantitative
T2 construct: host or cells: A9L cells
Experimental: as §1, §2, §3

human FMO1 Supersomes = biological target: T3, human FMO1 Supersomes (Homo sapiens, UniProt Q01740); assay: Metabolism by flavin monoxygenase 1 (FMO1) Supersomes; format: in vitro ADME; details: after 6 hours (FIG. 2)
T3 construct: purchased BD Biosciences 456241
T3 sequence (Q01740 1-532): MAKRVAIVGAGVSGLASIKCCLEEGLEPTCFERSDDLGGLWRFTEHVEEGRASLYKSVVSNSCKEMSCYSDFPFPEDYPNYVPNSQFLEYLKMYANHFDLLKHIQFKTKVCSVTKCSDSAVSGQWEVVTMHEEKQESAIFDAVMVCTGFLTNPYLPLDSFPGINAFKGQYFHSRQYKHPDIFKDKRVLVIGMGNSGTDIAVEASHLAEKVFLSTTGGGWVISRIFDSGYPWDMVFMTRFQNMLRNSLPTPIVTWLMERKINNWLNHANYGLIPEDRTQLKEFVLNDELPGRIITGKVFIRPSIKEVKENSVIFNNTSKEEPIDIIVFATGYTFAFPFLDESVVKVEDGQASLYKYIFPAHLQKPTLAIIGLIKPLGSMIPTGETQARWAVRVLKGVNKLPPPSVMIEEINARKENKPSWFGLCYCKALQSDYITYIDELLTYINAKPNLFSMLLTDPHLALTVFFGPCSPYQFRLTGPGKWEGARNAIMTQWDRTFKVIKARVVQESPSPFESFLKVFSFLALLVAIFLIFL
Experimental: […] Aliquots were removed every 10 minutes, and 1% formic acid was added to halt the reaction. Samples were centrifuged, filtered through 0.2 micron spinfilter and the amount of each compound in the supernatants was quantitated using LC/MS/MS.

[3] = Metabolites in serum and urine of dosed rats (LC-MS); format: in vivo; details: rat serum or urine, 10 mg/kg po
Experimental: Oxadiazoles disclosed herein as well as other oxadiazoles were investigated to determine the formation of metabolites. Animals were dosed, blood taken, serum prepared, serum proteins precipitated and ultrafiltrates prepared as described in Example 6. In separate experiments, urine was collected from rats for 16-24 hours after dosing, using standard metabolic cages. The urine container and collected urine were maintained at 4° C. Urine was lyophilized, taken back into water. The uftrafiltrate was prepared by adding formic acid to a final concentration of 1% to the urine samples, then filtered through a 0.2 um nylon membrane. The ultrafiltrate was subjected to LC-MS analysis. Instead of measuring the product ions in Q3, manual Q1 scans of the liquid chromatograph were undertaken, seeking parent ions of potential metabolites of the compounds. The criteria for identifying metabolites were as follows: (1) the ion should be present in the sera or urines of dosed rats, but not in sera or urines from non-dosed rats (2) the ion should be identifiable as a metabolic derivative of the dosed compound (e.g. loss of a functional chemical moiety, addition of a hydroxyl group or a glucuronic acid moiety, etc). Metabolites were determined not to be present if no compound meeting the above criteria could be detected in serum or urine.

[4] = Blood and brain concentrations (rats), oral gavage; format: in vivo, Long-Evans Hooded rats; details: rat, 10 mg/kg po, 1 hr, relative to MCD-386 = 1.00
Experimental: Long-Evans Hooded rats (Charles River: male, 250-350 g) were dosed with solutions of test compounds in PBS by oral gavage. At the desired time after dosing, the animals were anesthetized with isoflurane, and then euthanized by cervical dislocation. Blood was obtained by cardiac puncture, transferred to a 1.5 mL microcentrifuge tube containing 15U Heparin, and the plasma recovered after centrifugation. Brains were dissected, weighed, immediately chilled to 4° C., and homogenized using a PowerGen 125 homogenizer in five volumes of ice-cold 2% formic acid. Proteins were precipitated from plasma and brain homogenate with two and five volumes respectively of ice-cold 2% formic acid and clarified by centrifugation. The supernatant was ultra-filtered by centrifugation through a 3K MWCO spin column (Pall Life Sciences), following the manufacturer's instructions. The concentration of compound in the ultra-filtrate was subjected to reverse-phase liquid chromatography using a 150×2.1 mm Agilent C8 reverse-phase column on a Shimadzu Prominence LC, eluting the compounds with a gradient of 2% to 50% of acetonitrile+0.1% formic acid for compound MI-50,382, or an isocratic flow of 2% acetonitrile+0.1% formic acid for the rest of the compounds listed. The concentration of the compound in the column effluent was measured using an Applied Biosystems API-3200 triple quadrupole mass spectrometer equipped with an electrospray sample injection system. The counts of the characteristic parent and product ions of each test compound were converted to concentration units by comparison with a standard calibration curve.

anesthetized rats = assay: Salivation after iontophoretic transdermal co-delivery of agonist and antagonist; format: in vivo, Long Evans Hooded rats; details: anesthetized rat, one patch with 1 mg Compound 3 plus 0.01 mg antagonist
Experimental: Experimental compounds and drug substances were delivered transdermally in rats using iontophoresis as follows. The fur was shaved from the backs of Long Evans Hooded rats weighing 225 to 325 grams, using electric clippers. Experimental compounds and drug substances were formulated at suitable concentrations an aqueous mixture of the following composition:
The polyvinyl alcohol/water was heated to 95 deg C. until it became clear, then the other constituents were added and mixed well. The mixture was introduced into suitable molds containing a disc-shaped cavity 2.2 cm diameter and 2.2 mm deep. Molds may be fabricated using two glass sheets separated by a silicone rubber sheet with suitable sized cavities and filling ports cut-outs. The molds were subject to 3 freeze-thaw cycles at −80 deg C. and 20 deg C. until a firm cryogel was obtained. The gels were separated from the molds and trimmed into a circular shape. The gel was placed in a silicone rubber casing with one face in contact with a circular silver foil anodic electrode (22 mm dia/250 microns thick), and the assembly was placed on the shaved skin of the rat such that the other face was in contact with the skin on one side of the back of the rat. The rubber casing formed a seal over and around the gel/electrode assembly. […] This was placed on the other side of the shaved back of the rat, the edges of the gel discs being about 20 mm apart at their nearest point. A DC voltage was applied across the two patches from a constant-current DC power supply and the voltage adjusted to obtain the desired current, such that the skin of the animal completed the electrical circuit.
The devices were placed on shaved backs of anesthetized rats and salivation was measured.
The animals were placed slightly head-down on an inclined, heated ramp. Rectal temperature was monitored using a thermocouple and the temperature of the heating pad was adjusted manually to maintain normal body temperature. Saliva was collected from the mouth by absorption onto pre-weighed slips of filter paper. The filter paper was changed periodically and the amount of saliva was measured by weighing the filter paper slips

[5] = system: salivary gland inositol phosphate; assay: In vivo tissue inositol phosphate signaling pathway activation, salivary gland; parameters: species or system Long Evans Hooded rats; details: rat; for block of increase in salivary gland inositol phosphate caused by Compound 3: Compound 3 1 mg/kg; for inhibition of salivary gland inositol phosphate response to MCD-386: MCD-386 50 mg/kg, antagonist 0.3 mg/kg (FIG. 7)
Experimental: (§4) Experimental compounds or drug substances were administered using standard techniques to Long Evans Hooded rats weighing 225 to 350 grams, and which had been pretreated with a subcutaneous injection of lithium chloride at a suitable dose between 3 and 10 mmoles per kg. At suitable times the animals were briefly anesthetized using 5% isoflurane and euthanized by decapitation. The brains and submaxillary salivary glands were rapidly dissected out, and the hippocampuses were dissected from the brains. The dissected tissues were homogenized in a suitable volume of ice-cold phosphate-buffered saline containing 10 mM lithium chloride, pH7.4, using a tissue homogenizer, and used immediately or frozen in aliquots at −80 deg C. for future use. The concentration of inositol-1-phosphate was determined in the homogenates using the IPOne TR-FRET assay (CisBio cat no 621PAPEB), following the manufacturer's instruction

[6] = system: hippocampal inositol phosphate; assay: In vivo tissue inositol phosphate signaling pathway activation, hippocampus; parameters: species or system Long Evans Hooded rats; details: rat, Compound 3 1 mg/kg, antagonist 0.03 mg/kg
Experimental: as §4

[7] = antagonist 0.03 mg/kg (FIGS. 8C, 8D)
[8] = tertiary amine antagonist 0.1 mg/kg (FIGS. 8C, 8D)

T2 sequence (P20309 whole entry): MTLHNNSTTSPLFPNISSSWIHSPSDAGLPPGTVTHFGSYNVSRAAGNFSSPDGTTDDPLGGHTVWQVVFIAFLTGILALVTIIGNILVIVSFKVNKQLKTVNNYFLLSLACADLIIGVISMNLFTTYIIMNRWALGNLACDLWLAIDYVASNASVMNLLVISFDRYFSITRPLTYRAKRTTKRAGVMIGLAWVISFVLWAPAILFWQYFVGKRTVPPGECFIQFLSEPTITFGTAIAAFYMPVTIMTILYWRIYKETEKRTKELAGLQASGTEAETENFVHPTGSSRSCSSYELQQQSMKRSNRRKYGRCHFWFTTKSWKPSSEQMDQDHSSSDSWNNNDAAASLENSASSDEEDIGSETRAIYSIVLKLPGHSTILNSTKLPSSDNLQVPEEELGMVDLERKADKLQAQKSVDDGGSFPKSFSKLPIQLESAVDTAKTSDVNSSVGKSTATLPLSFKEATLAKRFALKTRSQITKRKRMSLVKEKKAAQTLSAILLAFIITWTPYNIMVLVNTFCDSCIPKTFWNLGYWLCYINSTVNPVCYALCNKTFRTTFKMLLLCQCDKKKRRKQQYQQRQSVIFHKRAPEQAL

## 3-methyl-5-(quinuclidin-3-yl)-1,2,4-oxadiazole [Compound 37]
[1]; huM1 versus huM3 A9L cells
  selectivity between M1 and M3 receptors: essentially non-selective between M1 and M3 receptors
[1]
  huM1/A9L Smax: 50-100%
  huM1/A9L ED50 relative to CCh*: ++ (++ potency >10x CCh)
PAMPA test, Example 34; Table 14
  PAMPA Permeability Coefficient (×10^6): 3.02 ×10^6
[2]
  huM3/A9L Smax: 50-100%
  huM3/A9L ED50 relative to CCh*: ++ (++ potency >10x CCh)
Human FMO1 Supersomes
  extent of metabolism in FMO Supersomes (in words): almost completely metabolized

## [2H]C([2H])([2H])C([2H])([2H])c1noc(C2CN=CNC2)n1 (stereo not drawn) [Compound 2c, 3-(1,1,2,2,2-d5-ethyl)-5-(1,4,5,6-tetrahydropyrimidin-5-yl)-1,2,4-oxadiazole hydrochloride]
[3]
  Presence of metabolites (10 mg/kg po): No
[4]
  Brain Cmax (10 mg/kg po) 1 hr MCD-386 = 1.00: 0.61

## CC(C)[N+](C)(CCOC(=O)C1c2ccccc2Oc2ccccc21)C(C)C [propantheline]
Anesthetized rats
  reduction of salivation caused by transdermal iontophoretic delivery of Compound 3: greatly reduced
[5]; [7]
  block of increase in salivary gland inositol phosphate caused by Compound 3: can block
[5]
  inhibition of salivary gland inositol phosphate response to MCD-386: virtually completed inhibited
[6]
  effect on increase in hippocampal inositol phosphate caused by Compound 3: without blocking the increase in hippocampal inositol phosphate

## C[N+]1(C)CCC(OC(=O)C(O)(c2ccccc2)C2CCCC2)C1 (stereo not drawn) [glycopyrrolate]
Anesthetized rats
  reduction of salivation caused by transdermal iontophoretic delivery of Compound 3: greatly reduced
[5]; [7]
  block of increase in salivary gland inositol phosphate caused by Compound 3: can block
[5]
  inhibition of salivary gland inositol phosphate response to MCD-386: virtually completed inhibited
[6]
  effect on increase in hippocampal inositol phosphate caused by Compound 3: without blocking the increase in hippocampal inositol phosphate

## NC(=O)C(c1ccccc1)(c1ccccc1)[C@@H]1CCN(CCc2ccc3c(c2)CCO3)C1 [darifenacin]
Anesthetized rats
  reduction of salivation caused by transdermal iontophoretic delivery of Compound 3: reduced salivation, but were less effective
[5]; [8]
  block of increase in salivary gland inositol phosphate caused by Compound 3: less effective
[5]
  inhibition of salivary gland inositol phosphate response to MCD-386: less effective

## CCN(CC)CC#CCOC(=O)C(O)(c1ccccc1)C1CCCCC1 (stereo not drawn) [oxybutinin]
Anesthetized rats
  reduction of salivation caused by transdermal iontophoretic delivery of Compound 3: reduced salivation, but were less effective
[5]; [8]
  block of increase in salivary gland inositol phosphate caused by Compound 3: less effective
[5]
  inhibition of salivary gland inositol phosphate response to MCD-386: less effective

## [2H]C([2H])(C)c1noc(C2CN=CNC2)n1 (stereo not drawn) [Compound 6c, 3-(1,1-d2-ethyl)-5-(1,4,5,6-tetrahydropyrimidin-5-yl)-1,2,4-oxadiazole hydrochloride]
[3]
  Presence of metabolites (10 mg/kg po): No
[4]
  Brain Cmax (10 mg/kg po) 1 hr MCD-386 = 1.00: 0.82

## Cc1noc(C2(F)CCCNC2)n1 (stereo not drawn) [Compound 35, 5-(3-fluoropiperidin-3-yl)-3-methyl-1,2,4-oxadiazole]
[1]
  huM1/A9L Smax: 81%
  huM1/A9L ED50 relative to CCh*: − (− potency <0.5-0.1x CCh)
PAMPA test, Example 34; PAMPA
  Papp: 16.3 ×10⁻⁶ cm/s
[2]
  huM3/A9L Smax: 70%
  huM3/A9L ED50 relative to CCh*: −− (−− potency <0.1x CCh)
